Assay results reported in patent US4560662A, “Streptomyces antibioticus ATCC 31771 and process for obtaining same” (priority 1981, dated 1985).
Values after ≈ are worked out from the molar mass of the structure shown. Where two headings read alike, the source gives them in different places.

What was measured:
[1] = test system: Staphylococcus aureus ATCC 6538 P; assay: Bacteriostatic power in solid medium (MIC), aerobic Gram positive; type: cell-based; details: Staphylococcus aureus, ATCC6538, read-out: minimum inhibiting concentration
[2] = test system: Streptococcus pneumonieae LRP 52; assay: as above; type: cell-based; details: Streptococcus, LRP52, read-out: minimum inhibiting concentration
[3] = test system: Acholeplasma laidlawii ATCC 23206; assay: Bacteriostatic power in solid medium (MIC), aerobic Gram negative; type: cell-based; details: Acholeplasma laidlawii, ATCC23206, read-out: minimum inhibiting concentration
Escherichia coli LRP 50 = assay: as above; type: cell-based; details: Escherichia coli
[4] = test system: Staphylococcus aureus LRP 14; assay: Bacteriostatic power in solid medium (MIC), aerobic Gram positive; type: cell-based; details: Staphylococcus aureus, LRP14, read-out: minimum inhibiting concentration
[5] = test system: Fusobacterium necrophorum ATCC 27852; assay: Bacteriostatic power in solid medium (MIC), anaerobic; type: cell-based; details: Fusobacterium necrophorum, ATCC27852, read-out: minimum inhibiting concentration
Salmonella typhi LRP 8 = assay: Bacteriostatic power in solid medium (MIC), aerobic Gram negative; type: cell-based; details: Salmonella enterica, TYPHI, read-out: minimum inhibiting concentration
[6] = test system: Neisseria Gonorrhoeae ATCC 19424; assay: as above; type: cell-based; details: Neisseria gonorrhoeae, ATCC19424, read-out: minimum inhibiting concentration
[7] = test system: Bacteroides fragilis ATCC 23745; assay: Bacteriostatic power in solid medium (MIC), anaerobic; type: cell-based; details: Bacteroides fragilis, ATCC23745, read-out: minimum inhibiting concentration
[8] = test system: Clostridium perfrigens ATCC 3624; assay: as above; type: cell-based; details: Clostridium, ATCC3624, LRP 206, read-out: minimum inhibiting concentration
[9] = test system: Streptococcus pneumonieae ATCC 6303; assay: Bacteriostatic power in solid medium (MIC), aerobic Gram positive; type: cell-based; details: Streptococcus, ATCC6303, read-out: minimum inhibiting concentration
Bacillus subtilis LRP 25 = assay: as above; type: cell-based; details: Bacillus subtilis, LRP25, read-out: minimum inhibiting concentration
[10] = test system: Streptococcus pneumonieae LRP 53; assay: as above; type: cell-based; details: Streptococcus, LRP53, read-out: minimum inhibiting concentration
[11] = test system: Streptococcus faecalis LRP 7; assay: as above; type: cell-based; details: Enterococcus faecalis, LRP7, read-out: minimum inhibiting concentration
[12] = test system: Streptococcus faecalis sub. zymogenes ATCC 12958; assay: as above; type: cell-based; details: Enterococcus faecalis, ATCC12958, read-out: minimum inhibiting concentration
[13] = test system: Micrococcus luteus ATCC 9341; assay: as above; type: cell-based; details: Micrococcus luteus, ATCC9341, read-out: minimum inhibiting concentration
[14] = test system: Proteus vulgaris ATCC 6380; assay: Bacteriostatic power in solid medium (MIC), aerobic Gram negative; type: cell-based; details: Proteus vulgaris, ATCC6380, read-out: minimum inhibiting concentration
[15] = test system: Mycoplasma hominis I ATCC 14097; assay: as above; type: cell-based; details: Metamycoplasma hominis, ATCC14097, read-out: minimum inhibiting concentration
[16] = test system: Klebsiella pneumoniae LRP 54; assay: as above; type: cell-based; details: Klebsiella pneumoniae, LRP54, read-out: minimum inhibiting concentration
physchem = type: physicochemical; details: acidic environment
Text: t 1/2 represents the half life time of the antibiotics as determined by
high pressure liquid phase chromatography (HPLC).

[17] = test system: Corynebacterium diphteriae LRP 24; assay: Bacteriostatic power in solid medium (MIC), aerobic Gram positive; type: cell-based; details: Corynebacterium, LRP24, read-out: minimum inhibiting concentration
[18] = test system: Micrococcus luteus ATCC 15957; assay: as above; type: cell-based; details: Micrococcus luteus, ATCC15957, LRP 193, Erythromicina resistant, read-out: minimum inhibiting concentration
Text: (§1) Turning now to an examination of the novel macrolide antibiotics produced according to the present invention, they are all characterized by a bacteriostatic spectrum like that of erythromycin and by the stability in acidic environment, whereby their direct administration by oral route is possible, without having recourse to esters and/or salts, showing the afore mentioned disadvantages and problems. The above is confirmed by the following Table 1, wherein the MIC values are reported, indicating the bacteriostatic power, and by the Table 2, giving the stability values in acidic environment. Without having to be construed in a limiting sense, it seems plausible that the greater stability of the macrolide. antibiotics of the present invention can be attributed to the presence in the molecule of the antibiotic of the neutral sugar oleandrose (J. Antib. (1976) XXIX (7), 728).
(§2) Bacteriostatic power in solid medium of Erythromycin A, Erythromycin B,
(§3) aerobic and anaerobic bacteria, Gram positive and Gram negative minimum
(§4) inhibiting concentrations expressed in mcg/ml.

[19] = test system: Staphylococcus aureus ATCC 14154; assay: as above; type: cell-based; details: Staphylococcus aureus, ATCC14154, LRP 78, Erythromicina resistant, read-out: minimum inhibiting concentration
Text: as §1, §2, §3, §4

[20] = test system: Haemophilus influenzae ATCC 19418; assay: Bacteriostatic power in solid medium (MIC), aerobic Gram negative; type: cell-based; details: Haemophilus influenzae, ATCC19418, LRP 213, read-out: minimum inhibiting concentration
Text: as §1, §2, §3, §4

Shigella sonnei LRP 5 = assay: as above; type: cell-based; details: Shigella sonnei, LRP5, read-out: minimum inhibiting concentration
Text: as §1, §2, §3, §4

[21] = test system: Pseudomonas aeruginosa LRP 9; assay: as above; type: cell-based; details: Pseudomonas aeruginosa, LRP9, read-out: minimum inhibiting concentration
Text: as §1, §2, §3, §4

[22] = test system: Streptococcus pyogenes ATCC 8668; assay: Bacteriostatic power in solid medium (MIC), aerobic Gram positive; type: cell-based; details: Streptococcus pyogenes, ATCC8668, read-out: minimum inhibiting concentration
[23] = test system: Streptococcus pyogenes LRP 197; assay: as above; type: cell-based; details: Streptococcus pyogenes, LRP197, read-out: minimum inhibiting concentration

SMILES	MIC [1] [µg/mL]	MIC [2] [µg/mL]	MIC [3] [µg/mL]	MIC [4] [µg/mL]	MIC [5] [µg/mL]	MIC (Salmonella typhi LRP 8) [µg/mL]	MIC [6] [µg/mL]	MIC [7] [µg/mL]	MIC [8] [µg/mL]	MIC [9] [µg/mL]	MIC (Bacillus subtilis LRP 25) [µg/mL]	MIC [10] [µg/mL]	MIC [11] [µg/mL]	MIC [12] [µg/mL]	MIC [13] [µg/mL]	MIC [14] [µg/mL]	MIC [15] [µg/mL]	MIC [16] [µg/mL]	half-life (physchem; pH 2) [h]	MIC [17] [µg/mL]	also measured
CC[C@H]1OC(=O)[C@H](C)[C@@H](O[C@H]2C[C@@](C)(OC)[C@@H](O)[C@H](C)O2)[C@H](C)[C@@H](O[C@@H]2O[C@H](C)C[C@H](N(C)C)[C@H]2O)[C@](C)(O)C[C@@H](C)C(=O)[C@H](C)[C@@H](O)[C@]1(C)O [Erythromycin A, reference compound]	0.049 (≈ 0.0668 µM)	0.012 (≈ 0.0164 µM)	0.097 (≈ 0.132 µM)	0.049 (≈ 0.0668 µM)	1.56 (≈ 2.13 µM)	12.5 (≈ 17 µM)	0.049 (≈ 0.0668 µM)	0.195 (≈ 0.266 µM)	1.56 (≈ 2.13 µM)	0.012 (≈ 0.0164 µM)	0.049 (≈ 0.0668 µM)	0.012 (≈ 0.0164 µM)	0.097 (≈ 0.132 µM)	0.195 (≈ 0.266 µM)	0.006 (≈ 0.00818 µM)	> 25	> 25	25 (≈ 34.1 µM)	0.0333	0.006 (≈ 0.00818 µM)	MIC (Escherichia coli LRP 50; LRP50, solid medium, LRP 50, read-out: minimum inhibiting concentration): 6.25 µg/mL (≈ 8.52 µM); half-life (physchem; pH 3): 0.1 h; MIC [18]: > 25 µg/mL; MIC [19]: > 25 µg/mL; MIC [20]: 3.12 µg/mL (≈ 4.25 µM); MIC (Shigella sonnei LRP 5): 12.5 µg/mL (≈ 17 µM); MIC [21]: > 25 µg/mL; MIC [22]: 0.012 µg/mL (≈ 0.0164 µM); MIC [23]: 0.012 µg/mL (≈ 0.0164 µM)
CC[C@H]1OC(=O)[C@H](C)[C@@H](O[C@H]2C[C@H](OC)[C@@H](O)[C@H](C)O2)[C@H](C)[C@@H](O[C@@H]2O[C@H](C)C[C@H](N(C)C)[C@H]2O)[C@](C)(O)C[C@](C)(O)C(=O)[C@H](C)[C@@H](O)[C@H]1C [P 15148, 3-O-oleandrosyl-5-O-desosaminyl-(8S)-8-hydroxyerythronolide B]	1.56 (≈ 2.17 µM)	0.195 (≈ 0.271 µM)	6.25 (≈ 8.68 µM)	1.56 (≈ 2.17 µM)	> 25	25 (≈ 34.7 µM)	1.56 (≈ 2.17 µM)	6.25 (≈ 8.68 µM)	25 (≈ 34.7 µM)	0.195 (≈ 0.271 µM)	0.78 (≈ 1.08 µM)	0.097 (≈ 0.135 µM)	0.78 (≈ 1.08 µM)	0.78 (≈ 1.08 µM)	0.049 (≈ 0.0681 µM)	> 25	> 25	> 25	27	0.097 (≈ 0.135 µM)	MIC (Escherichia coli LRP 50; LRP50, read-out: minimum inhibiting concentration): > 25 µg/mL; half-life (physchem; pH 3, read-out: t 1/2): > 100 h; half-life (physchem; pH 4, read-out: t 1/2): > 100 h; MIC [18]: > 25 µg/mL; MIC [19]: > 25 µg/mL; MIC [20]: > 25 µg/mL; MIC (Shigella sonnei LRP 5): > 25 µg/mL; MIC [21]: > 25 µg/mL; MIC [22]: 0.195 µg/mL (≈ 0.271 µM); MIC [23]: 0.195 µg/mL (≈ 0.271 µM)
